Results taken from BindingDB's records for doi:10.1016/j.ejmech.2018.01.013 (University of Rennes 1, 2018).

Experiment: Inhibition of human 20S constitutive proteasome beta-1 using Z-LLE-betaNA as substrate incubated for 15 mins measured for 45 mins by fluorescence assay

IC50 | SMILES
2.2 µM | C[C@H](NC(=O)[C@H](Cc1ccc(OCc2ccccc2)cc1)NC(=O)OC(C)(C)C)C(=O)N[C@@H](C[C@]1(O)C(=O)Nc2ccccc21)C(=O)NC(c1ccccc1)c1ccccc1
2.14 µM | C[C@H](NC(=O)[C@H](Cc1ccc(OCc2ccccc2)cc1)NC(=O)OC(C)(C)C)C(=O)N[C@@H](C[C@]1(O)C(=O)Nc2ccccc21)C(=O)NCc1cccc2ccccc12
11.4 µM | C[C@H](NC(=O)[C@H](Cc1ccc(OCc2ccccc2)cc1)NC(=O)OC(C)(C)C)C(=O)N[C@@H](C[C@]1(O)C(=O)N(C)c2ccccc21)C(=O)NCc1ccccc1
17.1 µM | C[C@@H](NC(=O)[C@H](Cc1ccc(OCc2ccccc2)cc1)NC(=O)OC(C)(C)C)C(=O)N[C@@H](C[C@]1(O)C(=O)Nc2ccccc21)C(=O)NCc1ccccc1
20.1 µM | CC(C)(C)OC(=O)N[C@@H](Cc1ccc(OCc2ccccc2)cc1)C(=O)N[C@@H](CC(N)=O)C(=O)N[C@@H](C[C@]1(O)C(=O)Nc2ccccc21)C(=O)NCc1ccccc1
17.6 µM | C[C@H](NC(=O)[C@H](Cc1ccc(OCc2ccccc2)cc1)NC(=O)OC(C)(C)C)C(=O)N[C@@H](C[C@]1(O)C(=O)Nc2ccccc21)C(=O)NCc1ccc(-c2ccccc2)cc1
13.4 µM | C[C@H](NC(=O)[C@H](Cc1ccc(OCc2ccccc2)cc1)NC(=O)OC(C)(C)C)C(=O)N[C@@H](C[C@@]1(O)C(=O)N(C)c2ccccc21)C(=O)NCc1ccccc1
4.9 µM | C[C@H](NC(=O)[C@H](Cc1ccc(OCc2ccccc2)cc1)NC(=O)OC(C)(C)C)C(=O)N[C@@H](C[C@]1(O)C(=O)Nc2ccccc21)C(=O)NCCc1ccccc1
17.2 µM | C[C@H](NC(=O)[C@H](Cc1ccc(OCc2ccccc2)cc1)NC(=O)OC(C)(C)C)C(=O)N[C@@H](C[C@@]1(O)C(=O)Nc2ccccc21)C(=O)NCc1ccccc1

Continued, compound first:

SMILES | IC50
C[C@H](NC(=O)[C@@H](N)Cc1ccc(OCc2ccccc2)cc1)C(=O)N[C@@H](C[C@]1(O)C(=O)Nc2ccccc21)C(=O)NCc1ccccc1 | 30 µM
C[C@H](NC(=O)Cc1cccc(Oc2ccccc2)c1)C(=O)N[C@@H](C[C@]1(O)C(=O)Nc2ccccc21)C(=O)NCc1ccccc1 | 40 µM
CC(O)[C@@H](NC(=O)c1ccc(OCc2ccccc2)cc1)C(=O)N[C@@H](C[C@]1(O)C(=O)Nc2ccccc21)C(=O)NCc1ccccc1 (stereo not given in full) | 31.9 µM
NCCCC[C@H](NC(=O)[C@@H](N)Cc1ccc(OCc2ccccc2)cc1)C(=O)N[C@@H](C[C@]1(O)C(=O)Nc2ccccc21)C(=O)NCc1ccccc1 | 13 µM
C[C@H](NC(=O)c1ccc(OCc2ccccc2)cc1)C(=O)N[C@@H](C[C@]1(O)C(=O)Nc2ccccc21)C(=O)NCc1ccccc1 | 35 µM
C[C@H](NC(=O)[C@H](Cc1ccc(OCc2ccccc2)cc1)NC(=O)OC(C)(C)C)C(=O)N[C@@H](C[C@]1(O)C(=O)Nc2ccccc21)C(=O)NCC(C)(C)C | 15.1 µM
